In general, EC50 refers to the concentration at which the effect is half-maximal.

Holding throughout (assay type): cell-based
In assay [1] the target is T1, human somatostatin receptor subtype 2 (Homo sapiens, UniProt P30874).
T1 construct: expressed in transfected cells
Briefly: Functional cAMP assay for SSTR2 agonists (HTRF) in CHO-K1 cells. To be noted: CHO-K1 cells stably expressing human SST2, 20 min. The gist of the method:
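CHO-K1 cells stably expressing receptor, plated 4 days before assay, treated 20 min at 37° C. with compound (typically 0-10,000 nM final) plus IBMX and 1.6 μM NKH477 to raise cAMP. HTRF read, 665/620 nm ratio; cAMP from standard curve, EC50 fitted.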
(Cyclic AMP is a second messenger, typically raised through Gs and lowered through Gi signalling.)

In assay [2] the target is T2, SST2 (Homo sapiens, UniProt P30874).
T2 construct: host or cells: PathHunter CHO-K1 SST2 cells
The experiment in a line: PathHunter CHO-K1 SST2 internalization assay. To be noted: PathHunter CHO-K1 SST2, 90 min. The method in brief: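 PathHunter CHO-K1 SST2 cells, seeded and grown 48 h, were exposed to 11-point 1:3 dilutions of SMDC (top final 10 uM) for 90 min at 37 C, 5% CO2. Beta-Glo luminescence was read after 60 min at room temperature. Background-corrected duplicate means were fitted by four-parameter nonlinear regression to give IC50.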

Assay [3] deals with NCI-H524 (ATCC) human small cell lung cancer cells. The method in brief: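 NCI-H524 cells (5,000/well) were exposed 24 h after plating to SMDC for 2 h, 11-point two-fold series from 1 uM. After washout they grew a further 70 h. Proliferation was read by CellTiter-Glo luminescence, % inhibition taken vs untreated control, and IC50 fitted by four-parameter nonlinear regression.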

Where two headings read alike, the source gives them in different places. Starred links: 1 amine or outer side, 2 acyl side, 3 side chain; linkers in the order of their positions; H or OH if unused. Non-standard residues stand in square brackets, D forms with d. Residues, ends and D or L forms follow the SMILES beside them. *: point of attachment. X1 = Cc1cc(F)cc(-c2cnc(NCCNC(=O)CCOCCC(=O)*)c(-c3nc4ccc(Cl)cc4[nH]3)c2N2CCC(N)CC2)c1; Dolaproine = CO[C@@H]([C@@H]1CCCN1)[C@@H](C)C(=O)O; Dil = CC[C@H](C)[C@H](NC)[C@@H](CC(=O)O)OC; PABC = O=C(OCc1ccc(N[*:1])cc1)[*:2]; X2 = C[C@@H](N*)[C@@H](O)c1ccccc1; Cit = NC(=O)NCCC[C@H](N)C(=O)O; NMeV = CN[C@H](C(=O)O)C(C)C

T2 sequence (P30874 whole entry): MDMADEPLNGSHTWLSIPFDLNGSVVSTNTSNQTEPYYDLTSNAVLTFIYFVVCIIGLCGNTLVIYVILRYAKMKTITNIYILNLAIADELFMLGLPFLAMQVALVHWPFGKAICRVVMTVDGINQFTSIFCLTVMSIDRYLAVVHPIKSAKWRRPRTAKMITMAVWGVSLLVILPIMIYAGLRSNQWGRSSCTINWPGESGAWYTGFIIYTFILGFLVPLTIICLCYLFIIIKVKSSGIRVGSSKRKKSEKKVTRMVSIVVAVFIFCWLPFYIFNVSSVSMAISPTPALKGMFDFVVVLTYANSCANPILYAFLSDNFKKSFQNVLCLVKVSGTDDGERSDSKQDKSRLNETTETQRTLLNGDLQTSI
T1 sequence (P30874 whole entry): as above

Take `CC[C@H](C)[C@@H]([C@@H](CC(=O)N1CCC[C@H]1[C@H](OC)[C@@H](C)C(=O)N[C@H](C)[C@@H](O)c1ccccc1)OC)N(C)C(=O)[C@@H](NC(=O)[C@H](C(C)C)N(C)C(=O)OCc1ccc(NC(=O)[C@H](CCCNC(N)=O)NC(=O)[C@@H](NC(=O)[C@H](CCC(=O)O)NC(=O)CCOCCOCCOCCOCCC(=O)NCCNc2ncc(-c3cc(C)cc(F)c3)c(N3CCC(N)CC3)c2-c2nc3ccc(Cl)cc3[nH]2)C(C)C)c(O[C@@H]2O[C@H](C(=O)O)[C@@H](O)[C@H](O)[C@H]2O)c1)C(C)C` [Compound 144]: the EC50 in assay [1] (read-out: hSST2 cAMP Avg EC50) amounted to 0.21 nM; in assay [2] (read-out: Internalization EC50) it was 6.9 nM; in assay [3] (2 h), 120 nM.
As to `COc1cc2cc(c1Cl)N(C)C(=O)C[C@H](OC(=O)[C@@H](C)N(C)C(=O)CCSSCCOCCOCCOCCC(=O)NCCNc1ncc(-c3cc(C)cc(F)c3)c(N3CCC(N)CC3)c1-c1nc3ccc(Cl)cc3[nH]1)[C@]1(C)OC1[C@@H](C)C1C[C@@](O)(NC(=O)O1)[C@H](OC)/C=C/C=C(\C)C2` (stereo partly drawn) [Compound 19, (2S,5S,6S,16E,18E,20R,21S)-11-chloro-21-hydroxy-12,20-dimethoxy-2,5,9,16-tetramethyl-8,23-dioxo-4,24-dioxa-9,22-diazatetracyclo[19.3.1.1^10,14.0^3,5]hexacosa-10,12,14(26),16,18-pentaen-6-yl (2R)-2-{1-[(2-{[4-(4-aminopiperidin-1-yl)-3-(6-chloro-1H-1,3-benzodiazol-2-yl)-5-(3-fluoro-5-methylphenyl)pyridin-2-yl]amino}ethyl)carbamoyl]-N-methyl-3,6,9-trioxa-12,13-dithiahexadecan-16-amido}propanoate], the EC50 in assay [1] (read-out: hSST2 cAMP Avg EC50) came out at 0.44 nM; in assay [2] (read-out: Internalization EC50), 7.1 nM; in assay [3] (2 h), 20 nM.
As to `CC[C@H](C)[C@@H]([C@@H](CC(=O)N1CCC[C@H]1[C@H](OC)[C@@H](C)C(=O)N[C@H](C)[C@@H](O)c1ccccc1)OC)N(C)C(=O)[C@@H](NC(=O)[C@H](C(C)C)N(C)C(=O)OCc1ccc(NC(=O)[C@H](CCCNC(N)=O)NC(=O)[C@@H](NC(=O)[C@H](CS(=O)(=O)O)NC(=O)CCOCCC(=O)NCCNc2ncc(-c3cc(C)cc(F)c3)c(N3CCC(N)CC3)c2-c2nc3ccc(Cl)cc3[nH]2)C(C)C)cc1C(=O)NCCN)C(C)C` [Compound 99], the EC50 in assay [1] (read-out: hSST2 cAMP Avg EC50) was 0.19 nM; in assay [2] (read-out: Internalization EC50), 2.8 nM; in assay [3] (2 h), 4.6 nM.
Regarding `CCC(C)C(C(CC(=O)N1CCCC1C(OC)C(C)C(=O)NC(C)C(O)c1ccccc1)OC)N(C)C(=O)C(NC(=O)C(C(C)C)N(C)C(=O)OCc1ccc(NC(=O)[C@H](CCCNC(N)=O)NC(=O)[C@@H](NC(=O)CCOCCOCCOCCOCCOCCOCCC(=O)NCCNc2ncc(-c3cc(C)cc(F)c3)c(N3CCC(N)CC3)c2-c2nc3ccc(Cl)cc3[nH]2)C(C)C)cc1)C(C)C` (stereo in doubt) [Compound 40], the figures for the EC50 in assay [1] (read-out: hSST2 cAMP Avg EC50), in assay [2] (read-out: Internalization EC50) and in assay [3] (2 h) were 0.36 nM, 26.4 nM and 46.5 nM, respectively.
For `CC[C@H](C)[C@@H]([C@@H](CC(=O)N1CCC[C@H]1[C@H](OC)[C@@H](C)C(=O)N[C@H](C)[C@@H](O)c1ccccc1)OC)N(C)C(=O)[C@@H](NC(=O)[C@H](C(C)C)N(C)C(=O)OCc1ccc(NC(=O)[C@H](CCCNC(N)=O)NC(=O)[C@@H](NC(=O)CCOCCOCCC(=O)NCCNc2ncc(-c3cc(C)cc(F)c3)c(N3CCC(N)CC3)c2-c2nc3ccc(Cl)cc3[nH]2)C(C)C)c(O[C@@H]2O[C@H](C(=O)O)[C@@H](O)[C@H](O)[C@H]2O)c1)C(C)C` [Compound 137], the values for the EC50 in assay [1] (read-out: hSST2 cAMP Avg EC50), in assay [2] (read-out: Internalization EC50) and in assay [3] (2 h) were 0.51 nM, 4.6 nM and 6.7 nM, respectively.
Regarding `CC[C@H](C)[C@@H]([C@@H](CC(=O)N1CCC[C@H]1[C@H](OC)[C@@H](C)C(=O)N[C@H](C)[C@@H](O)c1ccccc1)OC)N(C)C(=O)[C@@H](NC(=O)[C@H](C(C)C)N(C)C(=O)OCc1ccc(NC(=O)[C@H](CCCNC(N)=O)NC(=O)[C@@H](NC(=O)[C@H](CCC(=O)O)NC(=O)[C@H](CCC(=O)O)NC(=O)CCOCCC(=O)NCCNc2ncc(-c3cc(C)cc(F)c3)c(N3CCC(N)CC3)c2-c2nc3ccc(Cl)cc3[nH]2)C(C)C)cc1)C(C)C` [Compound 98] (X1-EEV[Cit][PABC][NMeV]V[Dil][Dolaproine]-X2), the EC50 was 0.25 nM in assay [1] (read-out: hSST2 cAMP Avg EC50), 2.9 nM in assay [2] (read-out: Internalization EC50) and 120 nM in assay [3] (2 h).
Take `CCc1c2c(nc3ccc(OC(=O)NCCOCCOCCOCCOCCC(=O)NCCNc4ncc(-c5cc(C)cc(F)c5)c(N5CCC(N)CC5)c4-c4nc5ccc(Cl)cc5[nH]4)cc13)-c1cc3c(c(=O)n1C2)COC(=O)[C@]3(O)CC` [Compound 10, (19S)-10,19-diethyl-19-hydroxy-14,18-dioxo-17-oxa-3,13-diazapentacyclo[11.8.0.0^2,^11.0^4,^9.0^15,^20]henicosa-1(21),2,4(9),5,7,10,15(20)-heptaen-7-yl N-{14-[(2-{[4-(4-aminopiperidin-1-yl)-3-(6-chloro-1H-1,3-benzodiazol-2-yl)-5-(3-fluoro-5-methylphenyl)pyridin-2-yl]amino}ethyl)carbamoyl]-3,6,9,12-tetraoxatetradecan-1-yl}carbamate]: the EC50 in assay [1] (hSST2 cAMP Avg EC50 (nM)) came to 0.44 nM; in assay [2] (Internalization EC50 (nM)), 3.15 nM; in assay [3] (2 h treatment, washout, additional 70 h, read-out: H524 EC50), 17.4 nM.
`COc1cc2cc(c1Cl)N(C)C(=O)CC(OC(=O)[C@@H](C)N(C)C(=O)CCSSCCNC(=O)CNC(=O)C[C@@H](N)C(=O)NCCNc1ncc(-c3cc(C)cc(F)c3)c(N3CCC(N)CC3)c1-c1nc3ccc(Cl)cc3[nH]1)[C@]1(C)OC1[C@@H](C)C1C[C@@](O)(NC(=O)O1)[C@H](OC)/C=C/C=C(\C)C2` (stereo partly drawn) [Compound 13]: the EC50 was 0.075 nM in assay [1] (read-out: hSST2 cAMP Avg EC50), 6.3 nM in assay [2] (read-out: Internalization EC50) and 41.8 nM in assay [3] (2 h).
For the compound `CC[C@H](C)[C@@H]([C@@H](CC(=O)N1CCC[C@H]1[C@H](OC)[C@@H](C)C(=O)N[C@H](C)[C@@H](O)c1ccccc1)OC)N(C)C(=O)[C@@H](NC(=O)[C@H](C(C)C)N(C)C(=O)OCc1ccc(NC(=O)[C@H](C)NC(=O)[C@@H](NC(=O)CCOCCC(=O)N[C@@H](CS(=O)(=O)O)C(=O)NCCNc2ncc(-c3cc(C)cc(F)c3)c(N3CCC(N)CC3)c2-c2nc3ccc(Cl)cc3[nH]2)C(C)C)c(O[C@@H]2O[C@H](CO)[C@@H](O)[C@H](O)[C@H]2O)c1)C(C)C` [Compound 66], the EC50 in assay [1] (read-out: hSST2 cAMP Avg EC50) was 0.13 nM; in assay [2] (read-out: Internalization EC50), 15 nM; in assay [3] (2 h) it was 300 nM.
For the compound `COc1cc2cc(c1Cl)N(C)C(=O)CC(OC(=O)[C@@H](C)N(C)C(=O)CCSSCCOCCOCCOCCOCCC(=O)NCCNc1ncc(-c3cc(C)cc(F)c3)c(N3CCC(N)CC3)c1-c1nc3ccc(Cl)cc3[nH]1)[C@]1(C)OC1[C@@H](C)C1C[C@@](O)(NC(=O)O1)[C@H](OC)/C=C/C=C(\C)C2` (stereo partly drawn) [Compound 21], the EC50 in assay [1] (read-out: hSST2 cAMP Avg EC50) turned out to be 0.41 nM; in assay [2] (read-out: Internalization EC50), 17.2 nM; in assay [3] (2 h) it was 22.4 nM.
For `CC[C@H](C)[C@@H]([C@@H](CC(=O)N1CCC[C@H]1[C@H](OC)[C@@H](C)C(=O)N[C@H](C)[C@@H](O)c1ccccc1)OC)N(C)C(=O)[C@@H](NC(=O)[C@H](C(C)C)N(C)C(=O)OCc1ccc(NC(=O)[C@H](CCCNC(N)=O)NC(=O)[C@@H](NC(=O)[C@H](CCC(N)=O)NC(=O)CCOCCC(=O)NCCNc2ncc(-c3cc(C)cc(F)c3)c(N3CCC(N)CC3)c2-c2nc3ccc(Cl)cc3[nH]2)C(C)C)cc1C(N)=O)C(C)C` [Compound 112], the EC50 is 0.16 nM in assay [1] (read-out: hSST2 cAMP Avg EC50), 2.9 nM in assay [2] (read-out: Internalization EC50) and 10 nM in assay [3] (2 h).
In the case of `COc1cc2cc(c1Cl)N(C)C(=O)CC(OC(=O)[C@@H](C)N(C)C(=O)CCSSCCC(=O)NCCNc1ncc(-c3cc(C)cc(F)c3)c(N3CCC(N)CC3)c1-c1nc3ccc(Cl)cc3[nH]1)[C@]1(C)OC1[C@@H](C)C1C[C@@](O)(NC(=O)O1)[C@H](OC)/C=C/C=C(\C)C2` (stereo partly drawn) [Compound 20, (2S,5S,6S,16E,18E,20R,21S)-11-chloro-21-hydroxy-12,20-dimethoxy-2,5,9,16-tetramethyl-8,23-dioxo-4,24-dioxa-9,22-diazatetracyclo[19.3.1.1^10,^14.0^3,^5]hexacosa-10,12,14(26),16,18-pentaen-6-yl (2R)-2-[3-({2-[(2-{[4-(4-aminopiperidin-1-yl)-3-(6-chloro-1H-1,3-benzodiazol-2-yl)-5-(3-fluoro-5-methylphenyl)pyridin-2-yl]amino}ethyl)-carbamoyl]ethyl}disulfanyl)-N-methylpropanamido]propanoate], the EC50 in assay [1] (read-out: hSST2 cAMP Avg EC50) was 0.27 nM; in assay [2] (read-out: Internalization EC50), 6.3 nM; in assay [3] (2 h) it was 31.6 nM.
Regarding `CC[C@H](C)[C@@H]([C@@H](CC(=O)N1CCC[C@H]1[C@H](OC)[C@@H](C)C(=O)N[C@H](C)[C@@H](O)c1ccccc1)OC)N(C)C(=O)[C@@H](NC(=O)[C@H](C(C)C)N(C)C(=O)OCc1ccc2cc1C(=O)NCCNC(=O)CC[C@H](NC(=O)CCOCCC(=O)NCCNc1ncc(-c3cc(C)cc(F)c3)c(N3CCC(N)CC3)c1-c1nc3ccc(Cl)cc3[nH]1)C(=O)N[C@@H](C(C)C)C(=O)N[C@@H](CCCNC(N)=O)C(=O)N2)C(C)C` [Compound 59], the EC50 in assay [1] (read-out: hSST2 cAMP Avg EC50) came out at 0.35 nM; in assay [2] (read-out: Internalization EC50), 6.5 nM; in assay [3] (2 h), 14 nM.
